Experimental data reported in article PMC8465315, “Molecular Umbrella as a Nanocarrier for Antifungals” (Molecules, 2021).
In brackets after ≈: the same amount, converted by molar mass. Where two headings read alike, the source gives them in different places. Values belong to the compound of their own block, whether it stands above or below them.

Columns and labels:
C. albicans ATCC 10231 [1] = experiment: Antifungal in vitro activity, serial two-fold dilution, YNB-AS medium; assay type: cell-based; details: Candida albicans, ATCC10231, >>1 = no growth inhibition at 1 mM
Description: (§1) The antifungal in vitro activity of conjugates 24a–d and 35 was determined by the serial two-fold dilution method, using the 96-well microtiter plates, in two growth media, RPMI-1640 and YNB-AS, against seven yeast species from the Candida genus. The MIC50 and MIC90 values, i.e., concentrations at which cell growth was inhibited in 50% and 90%, respectively, were measured and compared to those of the intact cispentacin. The concentration values presented in Table 1 and Table 2 are expressed in mM units to allow the comparison of the compounds’ effectiveness at the molecular level. […]
(§2) Susceptibility testing was performed in two growth media: (a) RPMI-1640 w/o sodium bicarbonate, with L-glutamine + 2% glucose + 3.45% MOPS, pH adjusted to 7.0; (b) YNB-AS—Yeast Nitrogen Base w/o amino acids (contains ammonium sulfate 5 g L^−1) + 2% glucose. The in vitro growth inhibitory activity of antifungals was quantified by determination of MIC50 and MIC90 values by the serial two-fold dilution method, using the 96-well microtiter plates. […]
(§3) Conditions of the RPMI-1640-based assay were the same as outlined in the CLSI recommendations except for the end-point readout that was done by spectrophotometric determination of cell density at 660 nm. Turbidity in individual wells was measured with a microplate reader (Victor^3; Perkin Elmer). […]

[2] = test system: Candida glabrata DSM 11226; experiment: as above; assay type: cell-based; details: Nakaseomyces glabratus, DSM11226, C. glabrata
Description: (§4) The antifungal in vitro activity of conjugates 24a–d and 35 was determined by the serial two-fold dilution method, using the 96-well microtiter plates, in two growth media, RPMI-1640 and YNB-AS, against seven yeast species from the Candida genus. The MIC50 and MIC90 values, i.e., concentrations at which cell growth was inhibited in 50% and 90%, respectively, were measured and compared to those of the intact cispentacin. The concentration values presented in Table 1 and Table 2 are expressed in mM units to allow the comparison of the compounds’ effectiveness at the molecular level. For data expressed in μg mL^−1 units, such comparison is not possible, since the molecular masses of conjugates (≈1755–2114 D range) are 14–16-fold higher than that of cispentacin (128.3 D).
(§5) The reference strains used in this study were Candida albicans ATCC 10231, Candida glabrata DSM 11226, and Candida krusei DSM 6128. C. albicans B3, B4, Gu4, and Gu5 clinical isolates were kindly provided by Joachim Morschhäuser, Würzburg, Germany. Gu4 and B3 are fluconazole-sensitive isolates obtained from early infection episodes, while Gu5 and B4 are the corresponding fluconazole-resistant isolates obtained from later episodes in the same patients treated with fluconazole. Strains were grown at 30 °C in YPD medium (2% glucose, 1% yeast extract, and 1% Bacto-Peptone) and stored on YPD agar plates containing 2% agar.
(§6) Susceptibility testing was performed in two growth media: (a) RPMI-1640 w/o sodium bicarbonate, with L-glutamine + 2% glucose + 3.45% MOPS, pH adjusted to 7.0; (b) YNB-AS—Yeast Nitrogen Base w/o amino acids (contains ammonium sulfate 5 g L^−1) + 2% glucose. The in vitro growth inhibitory activity of antifungals was quantified by determination of MIC50 and MIC90 values by the serial two-fold dilution method, using the 96-well microtiter plates. Serial dilutions of cispentacin and its conjugates were prepared in the 4–0.015 mM range.
(§7) Conditions of the RPMI-1640-based assay were the same as outlined in the CLSI recommendations except for the end-point readout that was done by spectrophotometric determination of cell density at 660 nm. Turbidity in individual wells was measured with a microplate reader (Victor^3; Perkin Elmer). The 96-well microtiter plates were also used for the determination of in vitro growth inhibitory activity in YNB-AS medium. Individual wells were inoculated with 5 × 10^3 Candida cells mL^−1 from the overnight culture in YPD medium. The plates were incubated at 37 °C for 24 h, and then, turbidity was measured with a microplate reader at 660 nm, as described above for the RPMI-1640-based assay.
(§8) Values of MIC50 and MIC90 were read from the graphs of A660 vs. drug concentration and corresponded to the interpolated values of drug concentration at which A660 was 50% or 10% of that measured for the drug-free control.

C. albicans B4 [3] = experiment: as above; assay type: cell-based; details: Candida albicans, C. albicans B4 (fluconazole-resistant isolate)
Description: as §4, §5, §6, §7, §8

Candida krusei DSM 6128 [4] = experiment: as above; assay type: cell-based; details: Pichia kudriavzevii, DSM6128, C. krusei
Description: as §4, §5, §6, §7, §8

C. albicans Gu4 [5] = experiment: as above; assay type: cell-based; details: Candida albicans, C. albicans Gu4 (fluconazole-sensitive isolate)
Description: as §4, §5, §6, §7, §8

C. albicans Gu5 [6] = experiment: as above; assay type: cell-based; details: Candida albicans, C. albicans Gu5 (fluconazole-resistant isolate)
Description: as §4, §5, §6, §7, §8

C. albicans B3 [7] = experiment: as above; assay type: cell-based; details: Candida albicans, C. albicans B3 (fluconazole-sensitive isolate)
Description: as §4, §5, §6, §7, §8

[8] = test system: Candida glabrata DSM 11226; experiment: Antifungal in vitro activity, serial two-fold dilution, RPMI-1640 medium; assay type: cell-based; details: Nakaseomyces glabratus, DSM11226, C. glabrata
Description: as §4, §5, §6, §7, §8

C. albicans B4 [9] = experiment: as above; assay type: cell-based; details: Candida albicans, C. albicans B4 (fluconazole-resistant isolate)
Description: as §4, §5, §6, §7, §8

Candida krusei DSM 6128 [10] = experiment: as above; assay type: cell-based; details: Pichia kudriavzevii, DSM6128, C. krusei
Description: as §4, §5, §6, §7, §8

C. albicans Gu4 [11] = experiment: as above; assay type: cell-based; details: Candida albicans, C. albicans Gu4 (fluconazole-sensitive isolate)
Description: as §4, §5, §6, §7, §8

C. albicans Gu5 [12] = experiment: as above; assay type: cell-based; details: Candida albicans, C. albicans Gu5 (fluconazole-resistant isolate)
Description: as §4, §5, §6, §7, §8

C. albicans B3 [13] = experiment: as above; assay type: cell-based; details: Candida albicans, C. albicans B3 (fluconazole-sensitive isolate)
Description: as §4, §5, §6, §7, §8

C. albicans ATCC 10231 [14] = experiment: as above; assay type: cell-based; details: Candida albicans, ATCC10231, >>1 = no growth inhibition at 1 mM
Description: as §1, §2, §3

Candida spp. = experiment: Antifungal in vitro activity, summary statements over the Candida strains tested; assay type: cell-based
Description: as §4, §6, §7, §8

[15] = test system: C. albicans cell-free extract; assay type: in vitro ADME, Candida albicans; details: conjugate 150 µM, 30 °C, 0, 30, 120 min
Description: (§9) Conjugates 24a–d, containing the TML system, were tested for susceptibility to enzymatic cleavage in the model system with pig liver esterase and in cell-free extract prepared from C. albicans cells. Conjugate 35 containing the o-dithiobenzylcarbamoyl linker was tested in the model system with glutathione and in C. albicans cell-free extract.
C. albicans cells were harvested from the culture in YPD medium in the logarithmic phase of growth and washed with PBS, pH 7.4. Then, cells were suspended in a minimal amount of PBS to an optical density OD660 ≈ 1.5. A sample of 1.5 mL of the cell suspension was put into the Lysing Matrix D, 2 mL tubes containing 1.4 mm ceramic spheres (MP Biomedicals). The tubes were vortexed 5 times for 2 min intervals, with 2 min breaks for cooling in the ice/water bath. Finally, the mixtures were centrifuged (10,000× g, 4 °C, 20 min), and the supernatant was pushed through the syringe filter, 0.22 μm pore size, to remove unbroken cells. The thus-obtained cell-free extract was kept at 4 °C and used no later than 5 h after preparation.
(§10) Analysis of cleavage of the conjugates was performed in two experimental systems: (A) model system, in the presence of pig liver esterase or glutathione, reduced; (B) in C. albicans cell-free extract.
A given conjugate was dissolved in 4 mL of C. albicans cell-free extract to the initial concentration of 150 µM. Mixtures were incubated at 30 °C. Samples of 1 mL were collected at zero time, after 30 min, and after 120 min. The collected samples were immediately de-proteinized by centrifugation (4 °C, 5000× g, 10 min) in Amicon® Ultra-4 Centrifugal Filter Units, 3 kDa cutoff limit. Samples of 50 μL were collected from the filtrates and subjected to HPLC-MS analysis.
(§11) The HPLC-MS system consisted of a liquid chromatograph, a degasser, a binary pomp, an auto-sampler, and a column oven, which was combined with an MS detector with an electrospray source (AJS ESI) and quadrupole analyzer (1260 Infinity II and 6470 Triple Quad LC/MS, Agilent Technologies, Waldbronn, Germany). The ChemStation software was used to control the LC-MS system and for data processing.
(§12) Chromatographic separations were performed on an Eclipse XDB-C18 column (150 mm × 4.6 mm, 5 μm). For the separation, a gradient of mobile phase A (H2O + 0.01% HCOOH) and mobile phase B (100% methanol) was used. The gradient profile was set as follows: 0 min—95% effluent A, 8 min—70% effluent A, 11 min—50% effluent A, 12 min—95% effluent A, 17 min—95% effluent A. The flow rate was 1 mL min^−1, the column temperature was 25 °C, and the injection volume was 20 μL.
(§13) The electrospray source operated in a negative mode. The data were collected in a MS scanning mode (MS2 SCAN) with the range 150–700 (m/z).

pig liver esterase = experiment: HPLC-MS analysis of conjugate cleavage, model system with pig liver esterase; assay type: in vitro ADME; details: pig liver esterase 5 mg mL^−1; conjugate 150 µM; 30 °C; 0, 30, 120 min
Description: as §9, §10
Mixtures containing a given conjugate at the initial concentration of 150 µM and pig liver esterase, 5 mg mL^−1 or 10 mM glutathione, reduced, in a total volume of 200 μL were incubated at 30 °C. Samples of 50 μL were collected at zero time, after 30 min, and after 120 min and subjected to HPLC-MS analysis.
as §11, §12, §13

MIC50 (C. albicans ATCC 10231 [1]): 20 µM (≈ 2.58 µg/mL)
MIC90 (C. albicans ATCC 10231 [1]): 100 µM (≈ 12.9 µg/mL)
MIC50 [2]: 100 µM (≈ 12.9 µg/mL)
MIC90 [2]: 500 µM (≈ 64.6 µg/mL)
MIC50 (C. albicans B4 [3]): 170 µM (≈ 22 µg/mL)
MIC90 (C. albicans B4 [3]): 280 µM (≈ 36.2 µg/mL)
MIC50 (Candida krusei DSM 6128 [4]): 90 µM (≈ 11.6 µg/mL)
MIC90 (Candida krusei DSM 6128 [4]): 150 µM (≈ 19.4 µg/mL)
MIC50 (C. albicans Gu4 [5]): 150 µM (≈ 19.4 µg/mL)
MIC90 (C. albicans Gu4 [5]): 180 µM (≈ 23.2 µg/mL)
MIC50 (C. albicans Gu5 [6]): 270 µM (≈ 34.9 µg/mL)
MIC90 (C. albicans Gu5 [6]): 390 µM (≈ 50.4 µg/mL)
MIC50 (C. albicans B3 [7]): 110 µM (≈ 14.2 µg/mL)
MIC90 (C. albicans B3 [7]): 150 µM (≈ 19.4 µg/mL)
MIC50 [8]: 510 µM (≈ 65.9 µg/mL)
MIC90 [8]: > 1000 µM
MIC50 (C. albicans B4 [9]): 340 µM (≈ 43.9 µg/mL)
MIC90 (C. albicans B4 [9]): 580 µM (≈ 74.9 µg/mL)
MIC50 (Candida krusei DSM 6128 [10]): 280 µM (≈ 36.2 µg/mL)
MIC90 (Candida krusei DSM 6128 [10]): 570 µM (≈ 73.6 µg/mL)
MIC50 (C. albicans Gu4 [11]): 260 µM (≈ 33.6 µg/mL)
MIC90 (C. albicans Gu4 [11]): 420 µM (≈ 54.2 µg/mL)
MIC50 (C. albicans Gu5 [12]): 410 µM (≈ 53 µg/mL)
MIC90 (C. albicans Gu5 [12]): 640 µM (≈ 82.7 µg/mL)
MIC50 (C. albicans B3 [13]): 210 µM (≈ 27.1 µg/mL)
MIC90 (C. albicans B3 [13]): 360 µM (≈ 46.5 µg/mL)
MIC50 (C. albicans ATCC 10231 [14]): 80 µM (≈ 10.3 µg/mL)
MIC90 (C. albicans ATCC 10231 [14]): 340 µM (≈ 43.9 µg/mL)
SMILES: N[C@H]1CCC[C@H]1C(=O)O [CisP, cispentacin]

SMILES: Cc1cc(C)c(C(C)(C)CC(=O)N[C@H]2CCC[C@H]2C(=O)O)c(OC(=O)CCCCCCC(=O)N(CCCCNC(=O)CC[C@@H](C)[C@H]2CC[C@H]3[C@@H]4[C@H](OS(=O)(=O)O)C[C@@H]5C[C@H](OS(=O)(=O)O)CC[C@]5(C)[C@H]4C[C@H](OS(=O)(=O)O)[C@]23C)CCCNC(=O)CC[C@@H](C)[C@H]2CC[C@H]3[C@@H]4[C@H](OS(=O)(=O)O)C[C@@H]5C[C@H](OS(=O)(=O)O)CC[C@]5(C)[C@H]4C[C@H](OS(=O)(=O)O)[C@]23C)c1 [24d]
antifungal activity (Candida spp.; RPMI-1640 medium): devoid of antifungal activity
antifungal activity (Candida spp.; both growth media (RPMI-1640 and YNB-AS)): inactive in both media
antifungal activity (Candida spp.; both growth media (RPMI-1640 and YNB-AS), listed as 26d): not active as an antifungal
cleavage / release of cispentacin or its derivative (HPLC-MS) [15]: the product of a possible cleavage, with RT similar to that of cispentacin but with 17 D higher MW, was formed
cleavage / release of cispentacin or its derivative (HPLC-MS) ([15]; listed as 26d): found cleavable in the cell-free extract
cleavage / release of cispentacin (HPLC-MS) (pig liver esterase): Presence of the released cispentacin was confirmed

SMILES: Cc1cc(C)c(C(C)(C)CC(=O)N[C@H]2CCC[C@H]2C(=O)O)c(OC(=O)CCC(=O)N(CCCCNC(=O)CC[C@@H](C)[C@H]2CC[C@H]3[C@@H]4[C@H](OS(=O)(=O)O)C[C@@H]5C[C@H](OS(=O)(=O)O)CC[C@]5(C)[C@H]4C[C@H](OS(=O)(=O)O)[C@]23C)CCCNC(=O)CC[C@@H](C)[C@H]2CC[C@H]3[C@@H]4[C@H](OS(=O)(=O)O)C[C@@H]5C[C@H](OS(=O)(=O)O)CC[C@]5(C)[C@H]4C[C@H](OS(=O)(=O)O)[C@]23C)c1 [24b]
antifungal activity (Candida spp.; RPMI-1640 medium): devoid of antifungal activity
cleavage / release of cispentacin or its derivative (HPLC-MS) [15]: Neither cispentacin nor the m/z 145.1/145.2 compound was found
cleavage / release of cispentacin (HPLC-MS) (pig liver esterase): resistant to enzymatic cleavage
